Test: Tissue distribution of radioactivity by Quantitative Whole-Body Autoradiography (QWBA), Group 4
Format: in vivo
Settings: rat
Experimental: A study was conducted to determine the pharmacokinetics, rates and routes of excretion with mass baseline and tissue distribution of radioactivity, after a single intravenous dose administration of formula XIII (also referred to as [^14C]DAP) was administered to the rats by tail vein intravenous injection at a
The study was conducted on 19 male rats divided into 4 groups. The first group of 6 rats was used for blood collection (Group 1); the second group of 4 rats was used for urine, feces, cage rinses and wipes and carcasses collection (Group 2); the third group of 4 rats was used for expired air collection (Group 3); the fourth group of 5 rats was used for terminal blood/serum and tissue distribution by Quantitative Whole-Body Autoradiography (QWBA) (Group 4).
For Group 4, formula XIII (QWBA was run at 1, 8, 12, 24 and 72 hours post dose. After terminal blood collection, each euthanized animal was frozen in a hexane/dry ice bath and embedded in a 2% carboxymethylcellulose matrix according to MPI Research SOP ADME-112. The embedded carcasses were sectioned according to MPI Research SOP ADME-113 on a Leica CM3600 Cyromacrotome set to maintain −10 to −30° C. At least four fortified quality control standards of known radioactive concentration were placed into the frozen block prior to sectioning and used for section thickness quality control. The quality control standards were sectioned under the same conditions as the specimen. The intrasection and intersection variation of collected sections were determined by analyzing the quality control standards. Section variation must be less than 20% for quantitative analysis. Sections that were approximately 40μm thick were taken in the sagittal plane. Appropriate sections selected at various levels of interest in the block were collected to encompass the following tissues, organs, and biological fluids, where possible: adrenal gland, bladder (urinary) and contents (urine), blood (cardiac), bone, bone marrow, brain, eye, fat (brown), fat (white), heart, kidney, large intestine/cecum and contents, liver, lung, muscle, pancreas, prostate, salivary glands, skin, small intestine and contents, spleen, stomach and contents, testes, thymus, thyroid, mesenteric lymph nodes, and epididymis. A set of sections were mounted, exposed to phosphor imaging screens and scanned using the Storm 860 image acquisition system according to MPI Research SOP ADME-112. Quantification, relative to the calibration standards, were performed by image densitometry using MCID™ image analysis software according to MPI Research SOP ADME-114. A standard curve was constructed from the integrated response (MDC/mm2) and the nominal concentrations of the [^14C]Glucose calibration standards. Relative error should be less than 0.5 for each point on the curve. The concentrations of radioactivity were expressed as μCi/g and were converted to μg or ng-equivalents of DAP per gram of sample (μg- or ng-eq/g) using the specific activity of administered [^14C]DAP dose formulation. A lower limit of quantification (LLOQ) was applied to the data. The LLOQ was determined using the radioactive concentration of the lowest calibration standard used to generate a calibration curve divided by the specific activity of the dose formulation (μCi/ug). Artifacts, such as those produced by dislodged contents of the alimentary canal, were excluded from analysis during image analysis.

## [2H]C1([2H])N(CCCNC(=O)[C@@H](N)CCCNC(=N)N)C([2H])([2H])C([2H])([2H])N(CCCNC(=O)[C@@H](N)CCCNC(=N)N)C1([2H])[2H] [formula XIII]
1 hour post dose, FIG. 1
  distribution to cartilage and tissues (autoradiograph): distribute very well to cartilage and tissues
After 8 hours, FIG. 2
  localization in cartilage and tissues (autoradiograph): no longer localized in all of the regions identifiable in FIG. 1
Single IV 2 mg/kg, 1 Hour
  Concentration of Radioactivity in Bone marrow: 6820 ng Equivalents [^14C]DAP/g
  Concentration of Radioactivity in Cartilage: 62602 ng Equivalents [^14C]DAP/g
  Concentration of Radioactivity in Kidney: 51966 ng Equivalents [^14C]DAP/g
  Concentration of Radioactivity in Kidney (cortex): 55358 ng Equivalents [^14C]DAP/g
  Concentration of Radioactivity in Kidney (medulla): 19308 ng Equivalents [^14C]DAP/g
  Concentration of Radioactivity in Large intestinal contents: BLQ (Below limit of quantitation (<172 ng equivalents [^14C]PER977/g))
  Concentration of Radioactivity in Liver: 6377 ng Equivalents [^14C]DAP/g
  Concentration of Radioactivity in Small intestine: 6838 ng Equivalents [^14C]DAP/g
  Concentration of Radioactivity in Thymus: 10420 ng Equivalents [^14C]DAP/g
  Concentration of Radioactivity in Urinary bladder: 26725 ng Equivalents [^14C]DAP/g
  Concentration of Radioactivity in Urine: 195176 ng Equivalents [^14C]DAP/g
Single IV 2 mg/kg, 8 Hours
  Concentration of Radioactivity in Bone marrow: 5524 ng Equivalents [^14C]DAP/g
  Concentration of Radioactivity in Cartilage: 13038 ng Equivalents [^14C]DAP/g
  Concentration of Radioactivity in Kidney: 43380 ng Equivalents [^14C]DAP/g
  Concentration of Radioactivity in Kidney (cortex): 45541 ng Equivalents [^14C]DAP/g
  Concentration of Radioactivity in Kidney (medulla): 3454 ng Equivalents [^14C]DAP/g
  Concentration of Radioactivity in Large intestinal contents: 510 ng Equivalents [^14C]DAP/g
  Concentration of Radioactivity in Liver: 3150 ng Equivalents [^14C]DAP/g
  Concentration of Radioactivity in Small intestine: 6643 ng Equivalents [^14C]DAP/g
  Concentration of Radioactivity in Thymus: 15093 ng Equivalents [^14C]DAP/g
  Concentration of Radioactivity in Urinary bladder: 1429 ng Equivalents [^14C]DAP/g
  Concentration of Radioactivity in Urine: 8374 ng Equivalents [^14C]DAP/g
Single IV 2 mg/kg, 12 Hours
  Concentration of Radioactivity in Bone marrow: 4948 ng Equivalents [^14C]DAP/g
  Concentration of Radioactivity in Cartilage: 7749 ng Equivalents [^14C]DAP/g
  Concentration of Radioactivity in Cerebellum: BLQ (Below limit of quantitation (<172 ng equivalents [^14C]PER977/g))
  Concentration of Radioactivity in Cerebrum: BLQ (Below limit of quantitation (<172 ng equivalents [^14C]PER977/g))
  Concentration of Radioactivity in Gastric mucosa: 2118 ng Equivalents [^14C]DAP/g
  Concentration of Radioactivity in Kidney: 40930 ng Equivalents [^14C]DAP/g
  Concentration of Radioactivity in Kidney (cortex): 48959 ng Equivalents [^14C]DAP/g
  Concentration of Radioactivity in Kidney (medulla): 2981 ng Equivalents [^14C]DAP/g
  Concentration of Radioactivity in Large intestinal contents: 4752 ng Equivalents [^14C]DAP/g
  Concentration of Radioactivity in Liver: 3330 ng Equivalents [^14C]DAP/g
  Concentration of Radioactivity in Medulla: BLQ (Below limit of quantitation (<172 ng equivalents [^14C]PER977/g))
  Concentration of Radioactivity in Small intestine: 9975 ng Equivalents [^14C]DAP/g
  Concentration of Radioactivity in Spinal cord: BLQ (Below limit of quantitation (<172 ng equivalents [^14C]PER977/g))
  Concentration of Radioactivity in Stomach contents: BLQ (Below limit of quantitation (<172 ng equivalents [^14C]PER977/g))
  Concentration of Radioactivity in Thymus: 14584 ng Equivalents [^14C]DAP/g
  Concentration of Radioactivity in Urinary bladder: 1095 ng Equivalents [^14C]DAP/g
  Concentration of Radioactivity in Urine: 5011 ng Equivalents [^14C]DAP/g
Single IV 2 mg/kg, 24 Hours
  Concentration of Radioactivity in Bone marrow: 1987 ng Equivalents [^14C]DAP/g
  Concentration of Radioactivity in Eye (lens): BLQ (Below limit of quantitation (<172 ng equivalents [^14C]PER977/g))
  Concentration of Radioactivity in Gastric mucosa: 1438 ng Equivalents [^14C]DAP/g
  Concentration of Radioactivity in Kidney: 39548 ng Equivalents [^14C]DAP/g
  Concentration of Radioactivity in Kidney (cortex): 40820 ng Equivalents [^14C]DAP/g
  Concentration of Radioactivity in Kidney (medulla): 2011 ng Equivalents [^14C]DAP/g
  Concentration of Radioactivity in Large intestinal contents: 1801 ng Equivalents [^14C]DAP/g
  Concentration of Radioactivity in Small intestine: 5090 ng Equivalents [^14C]DAP/g
  Concentration of Radioactivity in Spinal cord: BLQ (Below limit of quantitation (<172 ng equivalents [^14C]PER977/g))
  Concentration of Radioactivity in Stomach contents: BLQ (Below limit of quantitation (<172 ng equivalents [^14C]PER977/g))
  Concentration of Radioactivity in Thymus: 11451 ng Equivalents [^14C]DAP/g
  Concentration of Radioactivity in Urinary bladder: 606 ng Equivalents [^14C]DAP/g
  Concentration of Radioactivity in Urine: 4553 ng Equivalents [^14C]DAP/g
Single IV 2 mg/kg, 72 Hours
  Concentration of Radioactivity in Blood: BLQ (Below limit of quantitation (<172 ng equivalents [^14C]PER977/g))
  Concentration of Radioactivity in Bone: BLQ (Below limit of quantitation (<172 ng equivalents [^14C]PER977/g))
  Concentration of Radioactivity in Bone marrow: 841 ng Equivalents [^14C]DAP/g
  Concentration of Radioactivity in Cerebellum: BLQ (Below limit of quantitation (<172 ng equivalents [^14C]PER977/g))
  Concentration of Radioactivity in Epididymis: BLQ (Below limit of quantitation (<172 ng equivalents [^14C]PER977/g))
  Concentration of Radioactivity in Kidney: 18515 ng Equivalents [^14C]DAP/g
  Concentration of Radioactivity in Kidney (cortex): 15748 ng Equivalents [^14C]DAP/g
  Concentration of Radioactivity in Kidney (medulla): 556 ng Equivalents [^14C]DAP/g
  Concentration of Radioactivity in Large intestinal contents: 824 ng Equivalents [^14C]DAP/g
  Concentration of Radioactivity in Medulla: BLQ (Below limit of quantitation (<172 ng equivalents [^14C]PER977/g))
  Concentration of Radioactivity in Muscle: BLQ (Below limit of quantitation (<172 ng equivalents [^14C]PER977/g))
  Concentration of Radioactivity in Seminal vesicles: BLQ (Below limit of quantitation (<172 ng equivalents [^14C]PER977/g))
  Concentration of Radioactivity in Small intestine: 1597 ng Equivalents [^14C]DAP/g
  Concentration of Radioactivity in Spinal cord: BLQ (Below limit of quantitation (<172 ng equivalents [^14C]PER977/g))
  Concentration of Radioactivity in Stomach contents: BLQ (Below limit of quantitation (<172 ng equivalents [^14C]PER977/g))
  Concentration of Radioactivity in Testes: BLQ (Below limit of quantitation (<172 ng equivalents [^14C]PER977/g))
  Concentration of Radioactivity in Thymus: 8365 ng Equivalents [^14C]DAP/g
  Concentration of Radioactivity in Urinary bladder: 283 ng Equivalents [^14C]DAP/g
  Concentration of Radioactivity in Urine: 3866 ng Equivalents [^14C]DAP/g

Reference: US9999690B2, “Labeled compounds and methods of imaging, diagnosing cartilage disorders and diseases, and monitoring cartilage health using labeled and unlabeled compounds” (Perosphere Inc., priority 2013, dated 2018)
